Laboratory results taken from ChEMBL document CHEMBL4184174 (Bioorg Med Chem Lett, 2018).

Columns and labels:
[1] = target: T1, Alkaline phosphatase, tissue-nonspecific isozyme (Homo sapiens, UniProt P05186); assay: Inhibition of TNAP (unknown origin) using PPi as substrate
T1 sequence (P05186 whole entry): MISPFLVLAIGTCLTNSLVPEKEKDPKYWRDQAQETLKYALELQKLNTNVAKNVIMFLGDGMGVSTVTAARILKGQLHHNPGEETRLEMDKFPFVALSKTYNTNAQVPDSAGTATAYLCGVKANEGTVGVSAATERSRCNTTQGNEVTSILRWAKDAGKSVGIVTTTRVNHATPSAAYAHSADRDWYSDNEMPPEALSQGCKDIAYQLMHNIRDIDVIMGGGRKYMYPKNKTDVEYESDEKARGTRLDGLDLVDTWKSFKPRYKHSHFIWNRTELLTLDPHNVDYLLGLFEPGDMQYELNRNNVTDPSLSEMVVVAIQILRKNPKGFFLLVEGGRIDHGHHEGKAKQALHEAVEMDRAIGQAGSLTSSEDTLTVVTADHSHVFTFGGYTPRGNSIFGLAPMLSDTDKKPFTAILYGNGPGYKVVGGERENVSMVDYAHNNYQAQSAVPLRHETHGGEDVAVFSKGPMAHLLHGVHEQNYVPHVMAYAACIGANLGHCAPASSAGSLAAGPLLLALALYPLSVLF

[2] = target: T1, Alkaline phosphatase, tissue-nonspecific isozyme; assay: Inhibition of TNAP (unknown origin) in whole blood using pNPP as substrate
[3] = Volume of distribution in mouse at 2 mg/kg, iv; assay type: ADME, organism-based; settings: in vivo
[4] = Cmax in mouse at 10 mg/kg, po; assay type: ADME, organism-based; design: dose 10 mg/kg, route oral; settings: in vivo
[5] = test system: Mus musculus; assay: (§1) AUC in mouse at 10 mg/kg, po; assay type: ADME, organism-based; settings: in vivo
[6] = Half life in mouse at 10 mg/kg, po; assay type: ADME, organism-based; settings: in vivo
[7] = test system: Mus musculus; assay: Oral bioavailability in mouse at 10 mg/kg; assay type: ADME, organism-based; settings: in vivo
[8] = test system: Mus musculus; assay: In vivo inhibition of TNAP in mouse plasma at 10 mg/kg, po administered as single dose after 8 hrs relative to control; assay type: functional
[9] = test system: Mus musculus; assay: In vivo inhibition of TNAP in mouse plasma at 10 mg/kg, po administered as single dose measured at 24 hrs relative to control; assay type: functional
[10] = target: Intestinal-type alkaline phosphatase (Homo sapiens, UniProt P09923); assay: Inhibition of IAP (unknown origin)
Intestinal-type alkaline phosphatase, sequence (P09923 whole entry): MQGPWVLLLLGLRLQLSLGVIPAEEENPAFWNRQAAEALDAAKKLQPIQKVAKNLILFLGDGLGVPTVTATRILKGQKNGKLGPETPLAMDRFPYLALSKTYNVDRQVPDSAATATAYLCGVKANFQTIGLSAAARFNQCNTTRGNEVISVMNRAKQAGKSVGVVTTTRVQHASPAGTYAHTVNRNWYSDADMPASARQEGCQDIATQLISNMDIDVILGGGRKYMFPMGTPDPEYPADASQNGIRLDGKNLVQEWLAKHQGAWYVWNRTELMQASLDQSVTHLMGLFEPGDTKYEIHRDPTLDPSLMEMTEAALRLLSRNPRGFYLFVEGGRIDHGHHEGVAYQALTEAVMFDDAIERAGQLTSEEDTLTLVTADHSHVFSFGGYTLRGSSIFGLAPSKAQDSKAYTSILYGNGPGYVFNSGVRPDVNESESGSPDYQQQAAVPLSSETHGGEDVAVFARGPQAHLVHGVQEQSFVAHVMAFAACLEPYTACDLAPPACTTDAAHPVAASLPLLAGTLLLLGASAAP

[11] = target: Alkaline phosphatase, placental type (Homo sapiens, UniProt P05187); assay: Inhibition of PLAP (unknown origin)
Alkaline phosphatase, placental type, sequence (P05187 whole entry): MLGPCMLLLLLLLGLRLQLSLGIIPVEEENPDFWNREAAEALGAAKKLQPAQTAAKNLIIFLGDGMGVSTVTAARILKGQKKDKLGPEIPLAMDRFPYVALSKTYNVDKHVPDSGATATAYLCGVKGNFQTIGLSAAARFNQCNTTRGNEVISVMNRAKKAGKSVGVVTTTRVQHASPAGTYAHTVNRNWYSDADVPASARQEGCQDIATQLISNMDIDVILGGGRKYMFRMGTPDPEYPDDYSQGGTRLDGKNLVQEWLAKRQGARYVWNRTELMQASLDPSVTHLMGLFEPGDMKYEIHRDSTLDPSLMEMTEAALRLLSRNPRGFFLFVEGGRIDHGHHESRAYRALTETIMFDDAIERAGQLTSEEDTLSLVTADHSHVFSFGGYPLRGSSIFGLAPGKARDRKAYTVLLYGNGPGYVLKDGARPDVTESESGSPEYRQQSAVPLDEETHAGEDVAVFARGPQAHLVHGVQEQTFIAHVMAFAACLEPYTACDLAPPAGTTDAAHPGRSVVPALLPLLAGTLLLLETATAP

[12] = Clearance in mouse plasma at 2 mg/kg, iv; assay type: ADME, organism-based
[13] = as §1; assay type: ADME, organism-based; settings: in vivo

IC50 [1]	IC50 [2]	Vd [3]	Cmax [4]	AUC [5]	half-life [6]	F [7]	IC50 [10]	IC50 [11]	clearance [12]	AUC [13]	SMILES	inhibition in vivo at 10 mg/kg [8]	inhibition in vivo at 10 mg/kg [9]
876 nM	> 20000 nM										COc1ccc(-c2ccccc2)cc1S(=O)(=O)Nc1cccnc1		
	105 nM	1.03 L/kg	178 µg/mL	848 µg·h/mL	2.3 h	58%	> 80000 nM	> 80000 nM			COc1ccc(Cl)cc1S(=O)(=O)Nc1cncc(C(N)=O)c1	> 75%	50%
		0.31 L/kg	133 µg/mL	603 µg·h/mL	2.2 h	70%					COc1ccc(Br)cc1S(=O)(=O)Nc1cncc(C(N)=O)c1		
		0.88 L/kg	63 µg/mL		3.7 h	> 100%			16.8 mL/min/kg	141 µg·h/mL	COc1ccc(F)cc1S(=O)(=O)Nc1cncc(C(N)=O)c1		
